Earlier results, collected in EP3842031A1, “NEW THERAPEUTIC INHALATION SYSTEM PROVIDING REDUCED DOSE OF FLUTICASONE PROPIONATE AND SALMETEROL XINAFOATE WITH IMPROVED EFFICACY AND SAFETY PROFILE” (PRZEDSIEBIORSTWO FARMACEUTYCZNE LEK-AM SP Z O. O., priority 2019, dated 2021).

Assays:
[1] = in vivo
[2] = compared with beclomethasone dipropionate, control of chronic asthma

For CCC(=O)O[C@]1(C(=O)SCF)[C@H](C)C[C@H]2[C@@H]3C[C@H](F)C4=CC(=O)C=C[C@]4(C)[C@@]3(F)[C@@H](O)C[C@@]21C [Fluticasone propionate], the oral bioavailability [1] is given as “less than 1%” and the potency [2] is given as “twice the potency of the beclomethasone dipropionate”.
